Assay results reported in publication PMC4777480, “Trichoderma harzianum Produces a New Thermally Stable Acid Phosphatase, with Potential for Biotechnological Application” (PLoS ONE, 2016).

Columns and labels:
ACPase II = molecular target: T1, ACPase II (Trichoderma harzianum, UniProt A0A2T3ZY58); details: 5000 µM; 5 mM inorganic phosphate, 60°C; Table 3 gives residual activity instead
T1 construct: gene M431DRAFT_96728
T1 sequence (A0A2T3ZY58 21-556): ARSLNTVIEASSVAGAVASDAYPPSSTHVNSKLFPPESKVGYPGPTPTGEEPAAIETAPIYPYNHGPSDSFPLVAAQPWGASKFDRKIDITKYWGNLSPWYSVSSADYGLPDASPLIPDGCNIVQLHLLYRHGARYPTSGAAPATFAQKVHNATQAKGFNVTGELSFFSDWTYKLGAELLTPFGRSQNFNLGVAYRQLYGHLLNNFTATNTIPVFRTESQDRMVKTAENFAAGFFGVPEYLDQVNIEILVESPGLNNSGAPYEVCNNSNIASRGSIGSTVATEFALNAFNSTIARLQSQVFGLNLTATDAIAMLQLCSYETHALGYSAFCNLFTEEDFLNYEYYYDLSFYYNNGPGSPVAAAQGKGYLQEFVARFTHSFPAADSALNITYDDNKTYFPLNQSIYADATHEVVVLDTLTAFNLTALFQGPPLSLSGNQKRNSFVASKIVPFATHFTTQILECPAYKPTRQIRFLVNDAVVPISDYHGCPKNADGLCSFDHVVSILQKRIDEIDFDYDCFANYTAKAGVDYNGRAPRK

[1] = molecular target: the molecule itself; assay: SEC + other: dynamic light scattering; data not shown; ACPase II in solution, eluted in the void volume; hydrodynamic radius 14.3 nm, mass 326 kDa; conditions of the light scattering not told

O=P(O)(O)O [sodium phosphate]
ACPase II (ACPase II): 65.0 ± 2.0%

B1: ACPase II (acid phosphatase II) from Trichoderma harzianum (enzyme)
chain: ARSLNTVIEASSVAGAVASDAYPPSSTHVNSKLFPPESKVGYPGPTPTGEEPAAIETAPIYPYNHGPSDSFPLVAAQPWGASKFDRKIDITKYWGNLSPWYSVSSADYGLPDASPLIPDGCNIVQLHLLYRHGARYPTSGAAPATFAQKVHNATQAKGFNVTGELSFFSDWTYKLGAELLTPFGRSQNFNLGVAYRQLYGHLLNNFTATNTIPVFRTESQDRMVKTAENFAAGFFGVPEYLDQVNIEILVESPGLNNSGAPYEVCNNSNIASRGSIGSTVATEFALNAFNSTIARLQSQVFGLNLTATDAIAMLQLCSYETHALGYSAFCNLFTEEDFLNYEYYYDLSFYYNNGPGSPVAAAQGKGYLQEFVARFTHSFPAADSALNITYDDNKTYFPLNQSIYADATHEVVVLDTLTAFNLTALFQGPPLSLSGNQKRNSFVASKIVPFATHFTTQILECPAYKPTRQIRFLVNDAVVPISDYHGCPKNADGLCSFDHVVSILQKRIDEIDFDYDCFANYTAKAGVDYNGRAPRK
modifications: glycoprotein, approximately 30% carbohydrate (N- and O-glycosylation)
stoichiometry N [1]: 4
